According to patent publication US20080280855A1, “Process For the Production of Intermediates For the Preparation of Tricyclic Benzimidazoles” (NYCOMED GmbH, priority 2005, published 2008):
Structures can show the parent of a compound that is named as a salt.

How the values were obtained:
[1] = tested on: pentagastrin-stimulated acid secretion of the perfused rat stomach; assay: Testing of the secretion-inhibiting action on the perfused rat stomach; conditions: dose 1 μmol/kg i.d. (intraduodenal), anesthetized CD rat, female, continuous i.v. pentagastrin infusion; for Inhibition of acid secretion (%): in vivo

melting point [°C]	Compound	inhibition in vivo at 1 µmol/kg [1] [%]	other results
142 to 143	Cc1nc2c(O)c(CC[C@@H](O)c3ccccc3)c(C(=O)N(C)C)cc2n1COCC[Si](C)(C)C	–	–
–	Cc1nc2c3c(c(C(=O)N(C)C)cc2n1C)CC[C@@H](c1ccccc1)O3 [A, (8S)-2,3-Dimethyl-8-phenyl-3,6,7,8-tetrahydro-chromeno[7,8-d]imidazole-5-carboxylic Acid Dimethylamide]	> 60	–
215 to 216	Cc1nc2c3c(c(C(=O)N(C)C)cc2[nH]1)CC[C@@H](c1ccccc1)O3 [C, (8S)-2-Methyl-8-phenyl-3,6,7,8-tetrahydro-chromeno[7,8-d]imidazole-5-carboxylic Acid Dimethylamide]	> 90	–
–	Cc1nc2c3c(c(C(=O)N4CCC4)cc2n1C)CC[C@@H](c1ccccc1)O3 [D, (8S)-Azetidin-1-yl-(2,3-dimethyl-8-phenyl-3,6,7,8-tetrahydro-chromeno[7,8-d]imidazol-5-yl)-methanone]	> 50	–
–	CNC(=O)c1cc2c(nc(C)n2C)c2c1CC[C@@H](c1ccccc1)O2 [E, (8S)-2,3-Dimethyl-8-phenyl-3,6,7,8-tetrahydro-chromeno[7,8-d]imidazole-5-carboxylic Acid Methylamide]	> 80	–
265 to 266	Cc1nc2c(O)c(CC[C@@H](O)c3ccccc3)c(C(=O)N3CCC3)cc2n1C [Example 3, (3R)-Azetidin-1-yl-[7-hydroxy-6-(3-hydroxy-3-phenyl-propyl)-2,3-dimethyl-3H-benzoimidazol-5-yl]-methanone]	–	–
247 to 249	CNC(=O)c1cc2c(nc(C)n2C)c(O)c1CC[C@@H](O)c1ccccc1 [Example 4, (3R)-7-Hydroxy-6-(3-hydroxy-3-phenyl-propyl)-2,3-dimethyl-3H-benzoimidazole-5-carboxylic Acid Methylamide]	–	–
276 to 277	Cc1nc2c(O)c(CC[C@@H](O)c3ccc(F)cc3)c(C(=O)N(C)C)cc2n1C [Example 6, (3R)-6-[3-(4-Fluoro-phenyl)-3-hydroxy-propyl]-7-hydroxy-2,3-dimethyl-3H-benzoimidazole-5-carboxylic Acid Dimethylamide]	–	–
139 to 140	Cc1ccccc1[C@H](O)CCc1c(C(=O)N(C)C)cc2c(nc(C)n2C)c1O [Example 7, (3R)-7-Hydroxy-6-(3-hydroxy-3-o-tolyl-propyl)-2,3-dimethyl-3H-benzoimidazole-5-carboxylic Acid Dimethylamide]	–	–
145 to 147	Cc1nc2c(O)c(CC[C@@H](O)c3ccc4ccccc4c3)c(C(=O)N(C)C)cc2n1C [Example 10, (3R)-7-Hydroxy-6-(3-hydroxy-3-naphthalen-2-yl-propyl)-2,3-dimethyl-3H-benzoimidazole-5-carboxylic Acid Dimethylamide]	–	–
135 to 137	CCc1ccccc1[C@H](O)CCc1c(C(=O)N(C)C)cc2c(nc(C)n2C)c1O [Example 11, (3R)-6-[3-(2-Ethyl-phenyl)-3-hydroxy-propyl]-7-hydroxy-2,3-dimethyl-3H-benzoimidazole-5-carboxylic Acid Dimethylamide]	–	–
264 to 265	Cc1nc2c(O)c(CC[C@@H](O)c3cccs3)c(C(=O)N(C)C)cc2n1C [Example 12, (3R)-7-Hydroxy-6-(3-hydroxy-3-thiophen-2-yl-propyl)-2,3-dimethyl-3H-benzoimidazole-5-carboxylic Acid Dimethylamide]	–	–
203 to 205	Cc1ccccc1[C@@H](O)CCc1c(C(=O)N(C)C)cc2c(nc(C)n2C)c1O [Example 25, (3S)-7-Hydroxy-6-(3-hydroxy-3-o-tolyl-propyl)-2,3-dimethyl-3H-benzoimidazole-5-carboxylic Acid Dimethylamide]	–	–
–	Cc1nc2c3c(c(C(=O)N(C)C)cc2n1C)CC[C@@H](c1ccccc1F)O3 [F, (8S)-8-(2-Fluoro-phenyl)-2,3-dimethyl-3,6,7,8-tetrahydro-chromeno[7,8-d]imidazole-5-carboxylic Acid Dimethylamide]	> 70	–
–	Cc1nc2c3c(c(C(=O)N(C)C)cc2n1C)CC[C@@H](c1ccc(F)cc1)O3 [G, (8S)-8-(4-Fluoro-phenyl)-2,3-dimethyl-3,6,7,8-tetrahydro-chromeno[7,8-d]imidazole-5-carboxylic Acid Dimethylamide Hydrochloride]	100	–
–	Cc1ccccc1[C@@H]1CCc2c(C(=O)N(C)C)cc3c(nc(C)n3C)c2O1 [H, (8S)-2,3-Dimethyl-8-o-tolyl-3,6,7,8-tetrahydro-chromeno[7,8-d]imidazole-5-carboxylic Acid Dimethylamido]	–	Inhibition of acid secretion (%) [1]: 100%
–	Cc1nc2c3c(c(C(=O)N(C)C)cc2n1C)CC[C@@H](c1ccccc1Cl)O3 [I, (8S)-8-(2-Chloro-phenyl)-2,3-dimethyl-3,6,7,8-tetrahydro-chromeno[7,8-d]imidazol-5-carboxylic Acid Dimethylamide]	> 70	–
–	CCc1ccccc1[C@@H]1CCc2c(C(=O)N(C)C)cc3c(nc(C)n3C)c2O1 [L, (8S)-(2-Ethyl-phenyl)-2,3-dimethyl-3,6,7,8-tetrahydro-chromeno[7,8-d]imidazole-5-carboxylic Acid Dimethylamide]	–	Inhibition of acid secretion (%) [1]: >70%
–	Cc1cc(F)ccc1[C@@H]1CCc2c(C(=O)N(C)C)cc3c(nc(C)n3C)c2O1 [N, (8S)-8-(4-Fluoro-2-methyl-phenyl)-2,3-dimethyl-3,6,7,8-tetrahydro-chromeno[7,8-d]imidazole-5-carboxylic Acid Dimethylamide]	100	–
–	Cc1ccccc1[C@@H]1CCc2c(C(=O)N3CCCC3)cc3c(nc(C)n3C)c2O1 [O, (8S)-(2,3-Dimethyl-8-o-tolyl-3,6,7,8-tetrahydro-chromeno[7,8-d]imidazol-5-yl)-pyrrolidin-1-yl-methanone]	> 60	–
–	CNC(=O)c1cc2c(nc(C)n2C)c2c1CC[C@@H](c1ccccc1C)O2 [P, (8S)-2,3-Dimethyl-8-o-tolyl-3,6,7,8-tetrahydro-chromeno[7,8-d]imidazole-5-carboxylic Acid Methylamide]	100	–
–	Cc1ccccc1[C@@H]1CCc2c(C(=O)N3CCC3)cc3c(nc(C)n3C)c2O1 [Q, (8S)-Azetidin-1-yl-(2,3-dimethyl-8-o-tolyl-3,6,7,8-tetrahydro-chromeno[7,8-d]imidazol-5-yl)-methanone]	100	–
–	Cc1sccc1[C@@H]1CCc2c(C(=O)N(C)C)cc3c(nc(C)n3C)c2O1 [V, (8S)-2,3-Dimethyl-8-(2-methyl-thiophen-3-yl)-3,6,7,8-tetrahydro-chromeno[7,8-d]imidazole-5-carboxylic acid dimethylamide]	100	–
–	Cc1ccccc1[C@@H]1CCc2c(C(=O)NC3CC3)cc3c(nc(C)n3C)c2O1 [W, (8S)-2,3-Dimethyl-8-o-tolyl-3,6,7,8-tetrahydro-chromeno[7,8-d]imidazole-5-carboxylic acid cyclopropylamide]	100	–
